Experimental data reported in the NIST ThermoML archive (doi:10.1021/acs.jced.9b00703).
Numbers after ± are expanded uncertainties.

How the values were obtained:
[1] = Crystal; DSC
[2] = Molar enthalpy of transition or fusion; settings: Crystal; DSC

Triple point temperature [1]: 475.25 ± 0.87 K
Molar enthalpy of transition or fusion [2]: 10.7 ± 0.382 kcal/mol
Structure (SMILES): OC[C@H]1O[C@@H](Oc2ccc(O)cc2)[C@H](O)[C@@H](O)[C@@H]1O [β-arbutin]
